The text below walks through data of US20150005347A1, “NITROGEN-CONTAINING HETEROCYCLIC DERIVATIVE HAVING 2-IMINO GROUP AND PEST CONTROL AGENT INCLUDING THE SAME” (MEIJI SEIKA PHARMA CO., LTD., priority 2012, published 2015).

Structures are written as SMILES.

Common to all, as to assay type: in vivo
One series deals with Musca domestica. Nature of the series: Pest control test of Musca domestica adults, sucrose pledget. Conditions: 50 ppm in 40% sucrose liquid; four days after release. Here is the method: Test Example 21 Pest Control Test of Musca domestica
A drug solution of the compound of the present invention, which had been adjusted to be 50 ppm with a 40% sucrose liquid, was adsorbed on a pledget, and the pledget was put into a vial. Two adults reared indoors were released thereto. Thereafter, the adults were left to stand indoors at room temperature of 25° C. […] When two adults were all agonized in death, it was judged to be effective.

The next series has as its system Plutella xylostella. Kind of series: Plutella xylostella control test, cabbage leaf disk foliar spray. Conditions: Plutella xylostella, 72 h; foliar treatment at 100 ppm; second instar larvae; three days after release; read-out: mortality of larvae. Here is the method:
Test Example 1 Plutella xylostella Control Test
A leaf disk having a diameter of 5.0 cm was cut out from a cabbage in pot culture, and a drug solution of the compound of the present invention at a predetermined concentration, which had been prepared so as to be a 50% acetone water (0.05% Tween20 available), was sprayed to the leaf disk. After an air drying process, second instar larvae were released thereto. Thereafter, the larvae were left to stand in a thermostatic chamber (16 hours of light period-8 hours of dark period) at 25° C. […] Test in duplicate.
mortality larvae(%)={number of dead larvae/(number of survived larvae+number of dead larvae)}×100

For the next series, the system named is Aphis gossypii. Kind of series: Pest control test of Aphis gossypii, cucumber leaf disk foliar spray. Conditions: Aphis gossypii, 72 h, first instar larvae, three days after release; for mortality at 20 ppm: foliar treatment at 20 ppm; for mortality at 20 ppm / mortality at 100 ppm: read-out: mortality of larvae; for mortality at 100 ppm: foliar treatment at 100 ppm. The method, then: Test Example 3 Pest Control Test of Aphis gossypii
A leaf disk having a diameter of 2.0 cm was cut out from a cucumber in pot culture, and a drug solution of the compound of the present invention at a predetermined concentration, which had been prepared so as to be a 50% acetone water (0.05% Tween20 available), was sprayed to the leaf disk. After an air drying process, first instar larvae were released thereto. Thereafter, the larvae were left to stand in a thermostatic chamber (16 hours of light period-8 hours of dark period) at 25° C. […] Test in duplicate.
(§1) Mortality of larvae(%)={number of dead larvae/(number of survived larvae+number of dead larvae)}×100

Series [1] relates to Frankliniella occidentalis. Nature of the series: Pest control test of Frankliniella occidentalis, kidney bean leaf disk foliar spray. Conditions: Frankliniella occidentalis, 72 h; foliar treatment at 100 ppm; first instar larvae; three days after release; read-out: mortality of larvae.
From the text: Test Example 7 Pest Control Test of Frankliniella occidentalis
A leaf disk having a diameter of 2.8 cm was cut out from a kidney bean in pot culture, and a drug solution of the compound of the present invention at a predetermined concentration, which had been prepared so as to be a 50% acetone water (0.05% Tween20 available), was sprayed to the leaf disk. After an air drying process, first instar larvae were released thereto. Thereafter, the larvae were left to stand in a thermostatic chamber (16 hours of light period-8 hours of dark period) at 25° C. […] Test in duplicate.
as §1

Series [2] concerns Trigonotylus caelestialium. Kind of series: Pest control test of Trigonotylus caelestialium, wheat seedling dipping. Conditions: Trigonotylus caelestialium, 72 h; dipping treatment of the drug solution at 10 ppm; three days after treatment; read-out: mortality of larvae.
From the text: Test Example 8 Pest Control Test of Trigonotylus caelestialium
Wheat seedling leaves and stems four days after the dissemination of seedlings were dipped for 30 seconds in a drug solution of the compound of the present invention at a predetermined concentration, which had been prepared so as to be a 50% acetone water (0.05% Tween20 available). After an air drying process, the wheat seedling leaves and stems were placed into a glass tube, and two second instar larvae of Trigonotylus caelestialium were released to the same glass tube. After the larvae were released, the tube was lidded to leave the larvae to stand in a thermostatic chamber at 25° C. In order to supply water to the wheat during the test, water was given to the wheat from the bottom of the glass tube.
as §1

The subject of series [3] is imidacloprid susceptible populations of Nilaparvata lugens. Kind of series: Soil irrigation test, imidacloprid susceptible populations of Nilaparvata lugens. The method, then: A rice seedling in pot culture was subjected to soil irrigation treatment with a drug solution of the compound of the present invention at a predetermined concentration, which had been prepared so as to be a 10% acetone water. […] Thereafter, the larvae were left to stand in a thermostatic chamber (16 hours of light period-8 hours of dark period) at 25° C. […] The test was performed in duplicate.
as §1
Further, for comparison, the test against some population of Nilaparvata lugens which is highly susceptible to imidacloprid was performed by the same method as described above, and the results thereof are shown in Table 43.
Further, for the origin of test pests, bugs collected outdoors within the Kumamoto prefecture in 2007 as the drug resistant Nilaparvata lugens, and bugs collected within the Kagoshima prefecture and then successively reared indoors for a long time as the imidacloprid susceptible populations of Nilaparvata lugens were used.

Regarding `C#CCN=C(N=c1ccccn1Cc1ccc(Cl)nc1)C(F)(F)F` [Compound 1-56], the “activity against adults (effective when two adults were all agonized in death)” value (“activity against adults” for short) in the series on Musca domestica is recorded as “all the adults are agonized in death”. The same measure, in the same setting: for `FC(F)(F)C(=S)N=c1ccccn1Cc1cnc(Cl)s1` [Compound 2-20] the value was “all the adults are agonized in death”; for `CON=C(N=c1ccccn1Cc1ccc(Cl)nc1)C(F)(F)F` [Compound 1-500], “all the adults are agonized in death”. The mortality is the share of the test organisms that died. Regarding `O=C(/N=c1\ccccn1Cc1ccc(F)nc1)C(F)F` [Compound 3-3, 2,2-difluoro-N-[1-((6-fluoropyridin-3-yl)methyl)pyridin-2(1H)-ylidene]acetamide], the mortality at 100 ppm (with Plutella xylostella; in the series with Aphis gossypii; in series [1]) was at least 80% in each case. The mortality at 20 ppm in the series on Aphis gossypii is at least 80%. Further, the mortality at 10 ppm in series [2] was at least 80%. In addition, the “activity against adults” value with Musca domestica was “all the adults are agonized in death”. In the case of `O=C(N=c1ccccn1Cc1cnc(Cl)nc1)C(F)(F)Cl` [Compound 6-4], the “activity against adults” value with Musca domestica was “all the adults are agonized in death”. Still for that read-out and setting: for `O=C(N=c1ccccn1Cc1cnc(Cl)c(F)c1)C(F)(F)Cl` [Compound 5-4] the value was “all the adults are agonized in death”; for `CCN=C(N=c1ccccn1Cc1ccc(Cl)nc1)C(F)(F)F` [Compound 1-43], “all the adults are agonized in death”. For `O=C(N=c1ccccn1Cc1ccc(Br)nc1)C(F)(F)C(F)(F)F` [Compound 4-5], in the series with Musca domestica, the “activity against adults” value is listed as “all the adults are agonized in death”. The same measure, in the same setting: for `FC(F)(F)C(=NCc1cccnc1)N=c1ccccn1Cc1ccc(Cl)nc1` [Compound 1-119] the value was “all the adults are agonized in death”; for `C#CCC(=O)ON=C(N=c1ccccn1Cc1ccc(Cl)nc1)C(F)(F)F` [Compound 1-518], “all the adults are agonized in death”; for `O=C(N=c1ccccn1Cc1ccc(Br)nc1)C(F)(F)Cl` [Compound 4-4], “all the adults are agonized in death”. In the case of `O=C(N=c1ccccn1Cc1ccc(F)nc1)C(F)(F)Cl` [Compound 3-4], in the series with Musca domestica, the “activity against adults” value was “all the adults are agonized in death”.

In the case of `O=C(N=c1ccccn1Cc1cnc(Cl)nc1)C(F)F` [Compound 6-3], the “activity against adults” value with Musca domestica was “all the adults are agonized in death”. For `Cc1ccc(S(=O)(=O)ON=C(N=c2ccccn2Cc2ccc(Cl)nc2)C(F)(F)F)cc1` [Compound 1-531], in the series with Musca domestica, the “activity against adults” value is listed as “all the adults are agonized in death”. As to `C=CCON=C(/N=c1\ccccn1Cc1ccc(Cl)nc1)C(F)(F)F` [Compound 1-507, N′-(aryloxy)-N-[1-((6-chloropyridin-3-yl)methyl)pyridin-2(1H)-ylidene]-2,2,2-trifluoroacetimidamide], the mortality at 100 ppm in the series on Plutella xylostella and in the series on Aphis gossypii was at least 80% in each case. Besides, in the series on Aphis gossypii, the mortality at 20 ppm is at least 80%.

For the molecule `CCCNC(=O)O/N=C(/N=c1\ccccn1Cc1ccc(Cl)nc1)C(F)(F)F` [Compound 1-534, N-[1-((6-chloropyridin-3-yl)methyl)pyridin-2(1H)-ylidene]-2,2,2-trifluoro-N′-((propylcarbamoyl)oxy)acetimidamide], the mortality at 100 ppm in the series on Plutella xylostella is at least 80%.

Regarding `CCCN=C(N=c1ccccn1Cc1ccc(Cl)nc1)C(F)(F)F` [Compound 1-44], the “activity against adults” value in the series with Musca domestica is reported as “all the adults are agonized in death”. With `O=C(/N=c1\ccccn1Cc1ccc(Cl)nc1)OCC(F)(F)F` [Compound 1-17, 2,2,2-trifluoroethyl-[1-((6-chloropyridin-3-yl)methyl)pyridin-(2H)-ylidene]carbamate], the mortality at 100 ppm with Aphis gossypii is at least 80%. Also, the mortality at 500 ppm with Aphis gossypii (foliar treatment at 500 ppm) is at least 80%.

`FC(F)(F)C(=NC1CC1)N=c1ccccn1Cc1ccc(Cl)nc1` [Compound 1-50]: in the series on Musca domestica, the “activity against adults” value is given as “all the adults are agonized in death”. Consider `FC(F)(F)C(=NCCOc1ccccc1)N=c1ccccn1Cc1ccc(Cl)nc1` [Compound 1-114], for which, in the series on Musca domestica, the “activity against adults” value is on record as “all the adults are agonized in death”. On to `O=C(N=c1ccccn1Cc1cnc(Cl)nc1)C(F)(F)C(F)(F)F` [Compound 6-5], for which, in the series on Musca domestica, the “activity against adults” value is given as “all the adults are agonized in death”. Same read-out and setting: under `O=C(N=c1cccnn1Cc1ccc(Cl)nc1)C(F)(F)F` [Compound 223-2] stands “all the adults are agonized in death”; under `CSCCN=C(N=c1ccccn1Cc1ccc(Cl)nc1)C(F)(F)F` [Compound 1-150], “all the adults are agonized in death”. As for `FC(F)(F)C(=NCc1ccccc1)N=c1ccccn1Cc1ccc(Cl)nc1` [Compound 1-72], the “activity against adults” value with Musca domestica is reported as “all the adults are agonized in death”. For `FC(F)(F)C(=NCc1ccccn1)N=c1ccccn1Cc1ccc(Cl)nc1` [Compound 1-118], in the series on Musca domestica, the “activity against adults” value was “all the adults are agonized in death”.

With `O=C(N=c1ccccn1Cc1ccc(F)nc1)C(F)(F)C(F)(F)F` [Compound 3-5], the “activity against adults” value with Musca domestica is given as “all the adults are agonized in death”.

`O=[N+]([O-])NC1=NCCN1Cc1ccc(Cl)nc1` [Imidacloprid]: the “Insecticidal effects against Nilaparvata lugens (mortality of larvae %), Susceptible populations three days after the treatment” value in series [3] (Rate 0.01 mg/pot) is given as 73%; in series [3] (Rate 0.05 mg/pot) it was 90%.

Consider `O=C(N=c1ccccn1Cc1ccc(Br)nc1)C(F)F` [Compound 4-3], for which the “activity against adults” value in the series on Musca domestica is on record as “all the adults are agonized in death”.

With `O=C(N=c1ccccn1Cc1cnc(Cl)c(F)c1)C(F)(F)C(F)(F)F` [Compound 5-5], the “activity against adults” value in the series with Musca domestica is recorded as “all the adults are agonized in death”.

With `O=C(/N=c1\ncccn1Cc1ccc(Cl)nc1)C(F)(F)F` [Compound 190-2, N-[1-((6-chloropyridin-3-yl)methyl)pyrimidin-2(1H)-ylidene]-2,2,2-trifluoroacetamide], in the series with Aphis gossypii, the mortality at 20 ppm is at least 80% and the mortality at 100 ppm is at least 80%.
